Data: US8771973B2, “Methods for treating bleeding disorders using sulfated polysaccharides” (Baxter Healthcare S.A., priority 2004, dated 2014)
Marks after values point to notes of the source that are not given here.

Assays:
Hem-A plasma = assay: dPT assay, anti-coagulant activity of NASPs in Hem-A plasma; assay type: biochemical, human; conditions: for clotting time, dPT: Hem-A plasma without NASP 41.5 seconds; for concentration for 50% prolongation of clotting time, fold higher than heparin: dPT, Hem-A plasma
Method: The dPT assay used was a modified standard clinical PT assay (Nordfang et al. (1991) Thromb Haemost 66:464-467; Welsch et al. (1991) Thrombosis Research 64: 213-222). SIMPLASTIN EXCEL thromboplastin reagent (Organon Teknika) was reconstituted with the manufacturer's diluent and further diluted 1:100 in 0.9% saline. The thromboplastin reagent, 25 mM CaCl2, and plasma samples were pre-warmed to 37° C. before initiating the assay. 100 μl of thawed plasma was aliquoted into microcentrifuge tubes. […] 100 μl of the diluted thromboplastin reagent and 100 μl of 25 mM CaCl2 were added to fibrin cups (Fisher) prewarmed to 37° C. 100 μl of plasma (normal or hemophilic) containing the test agent or saline control was added to the fibrin cups containing the thromboplastin reagent and CaCl2 to initiate clotting. The time for plasma clotting was measured with a BBL FIBROSYSTEM fibrometer.
Test compounds were diluted to 100 μM, 10 μM, 2 μM and 200 nM. For each test compound, 12.5 μl of a diluted solution containing the test compound was added to 237.5 μl of Hem-A plasma and incubated at room temperature. 100 μl of plasma containing the test compound was removed for dPT assays of plasma clotting time as described in Example 2.

Hem-B mice [1] = assay: dPT clotting time of blood samples from Hem-B mice treated with PPS; assay type: in vivo; set-up: unit not given here
Method: The efficacy of PPS in improving clotting in Hem-B mice was further tested in dPT assays. All mice were bled prior to the study to establish baseline (pretest) clotting times. Mice (14 weeks old) were treated subcutaneously twice a day with PPS for 4.5 days at the following doses: 2, 0.3 and 0.06 mg/kg in a volume of 250 μl. Mice were bled after 4.5 days, and clotting times were determined from collected blood samples.

Hem-A mice [2] = assay: Survival after tail clip, PPS-treated Hem-A mice; assay type: in vivo
Method: (§1) Hem-A mice (homozygous for the exon 16 FVIII KO allele) were licensed from John Hopkins University, and Hem-B mice (homozygous for the exon 1-3 FIX KO) were licensed from University of North Carolina at Chapel Hill. All animal procedures were performed according to “Guide for the Care and Use of Laboratory Animals” (National Research Council. Guide for the care and use of laboratory animals. Washington, D.C.: National Academy Press; 1996) and all procedures were reviewed and approved by an institutional animal care and use committee.
(§2) A. PPS Efficacy in Hem-A and Hem-B Mice The efficacy of PPS in improving clotting in Hem-A and Hem-B mice was tested. Hem-A and Hem-B male or female mice were administered PPS at a dose of 0.02, 0.06, or 0.2 mg/kg or saline vehicle subcutaneously twice daily for […]. On the morning of the fifth day after dosing, the tail was clipped 1 cm from the tip, and behavior and survival were monitored for the next 20-24 hours.

rats = conditions: subcutaneously; cited from earlier work
Hem-B mice [3] = assay: Survival after tail clip, PPS-treated Hem-B mice; assay type: in vivo; conditions: 0.06 mg/kg s.c. twice daily 4.5 days, vehicle 25, p = 0.07
Method: as §1, §2

rabbits = conditions: intravenously at 10 mg/kg; cited from earlier work
Hem-A mice [4] = assay: Second fucoidan study, fucoidan +/- FVIII, survival of Hem-A mice after tail vein transection; assay type: in vivo; conditions: fucoidan 0.1 mg/kg s.c. twice daily 4.5 days, FVIII 1.25% reconstitution 2 hours prior
Method: In a second study with fucoidan, combination therapy potential with factor VIII was evaluated. This study was performed as described above, except on the morning of the fifth day, mice received an intravenous bolus dose of 53 mU/mouse FVIII (about 1.25% of the normal level of FVIII) in a tail vein far up near the body. As before, the lateral tail vein, and not the artery, was transected 2 hours later at the region corresponding to a diameter of about 2.7 mm. […] Survival and clinical observations were recorded for 20-24 hours.

Hem-A mice [5] = assay: First fucoidan study, survival of Hem-A mice after bleeding test; assay type: in vivo; conditions: vehicle 1/6
Method: Given the improved potency and magnitude of efficacy of fucoidan relative to PPS in some of the clotting assays described above, additional studies were performed in Hem-A mice with fucoidan. In the first study with fucoidan, nearly the same regimen as described for PPS was adopted, but with slightly different dose levels. Hem-A male mice were administered fucoidan at a dose of 0.1 or 1.0 mg/kg or saline subcutaneously twice daily for 4 days. On the morning of the 5th day, mice received a doubled dose of fucoidan prior to the bleeding test. Survival and animal behavior were evaluated for mice treated with fucoidan compared to vehicle controls.
In the first study, treatment of mice with fucoidan at a dose of 0.1 mg/kg appeared to be more efficacious than treatment at a dose of 1.0 mg/kg (survival at about 10 hours was 1/6 for vehicle, 4/6 for 0.1 mg/kg, and 3/6 for 1.0 mg/kg).

| Substance | clotting time, dPT (Hem-A plasma; 10 nM) [s] | clotting time, dPT (Hem-A plasma; 100 nM) [s] | clotting time, dPT (Hem-A plasma; 500 nM) [s] | clotting time, dPT (Hem-A plasma; 5000 nM) [s] | concentration for 50% prolongation of clotting time, fold higher than heparin (Hem-A plasma) | Mean clotting time at 4.5 days (Hem-B mice [1]; 0.06 mg/kg s.c. twice a day) | Mean clotting time at 4.5 days (Hem-B mice [1]; 0.3 mg/kg s.c. twice a day) | Mean clotting time at 4.5 days (Hem-B mice [1]; 2.0 mg/kg s.c. twice a day) | % Survival (20 hours post-cut) (Hem-A mice [2]; 0.02 mg/kg s.c. twice daily 4.5 days, vehicle 25) | % Survival (20 hours post-cut) (Hem-A mice [2]; 0.06 mg/kg s.c. twice daily 4.5 days, vehicle 25, p = 0.07) | improvement in survival (Hem-A mice [2]; 0.06 mg/kg, not statistically significant (0.05<p<0.1)) | % Survival (20 hours post-cut) (Hem-A mice [2]; 0.2 mg/kg s.c. twice daily 4.5 days, vehicle 25) | doses required to prolong clotting (rats) [mg/kg] | % Survival (20 hours post-cut) (Hem-B mice [3]) | tolerability (rabbits) | % Survival 9 hr (Hem-A mice [4]; 9 hr after tail vein incision, vehicle 21) | % Survival 20 hr (Hem-A mice [4]; 20 hr after tail vein incision, vehicle 7) | survival at about 10 hours (Hem-A mice [5]; 0.1 mg/kg s.c. twice daily) | survival at about 10 hours (Hem-A mice [5]; 1.0 mg/kg s.c. twice daily) |
| --- | --- | --- | --- | --- | --- | --- | --- | --- | --- | --- | --- | --- | --- | --- | --- | --- | --- | --- | --- |
| Pentosan Polysulphate Sodium [PPS] | 39 | 37 | 40 | 70 | ~100 fold | 37 | 38 | 44 | 20 ^ % | 44 ^# % | nearly two-fold improvement in survival | 40 ^ % | > 5 | 44 ^# % | – | – | – | – | – |
| Fucoidan | 39 | 38 | 60 | – | approximately 10 fold | – | – | – | – | – | – | – | – | – | well-tolerated | 61 * % | 38 ^+ % | 4/6 | 3/6 |
